The source of these data is ChEMBL document CHEMBL4024702, “Covalent Modifiers: A Chemical Perspective on the Reactivity of α,β-Unsaturated Carbonyls with Thiols via Hetero-Michael Addition Reactions” (J Med Chem, 2017).

pEC50, pKi: −log10 of the molar value.

Data set [1] concerns rhinovirus B14. In words: Irreversible inhibition of human rhinovirus serotype 14 3C protease assessed as ratio of Kobs/I.
The test system of the next data set is Enterovirus. In words: Antiviral activity against rhinovirus infected in human H1HeLa cells. The class given is functional. The conditions noted are these: H1-HeLa.
A short description of data set [2]: Cytotoxicity against human MRC5 cells. Format: cell-based.
Data set [3] is described as follows: Half life in human plasma. The class given is ADME, cell-free.
The nature of data set [4]: Half life in dog plasma. Format: ADME, cell-free, Canis lupus familiaris.
Data set [5] can be described thus: Half life in rat plasma. Format: ADME, cell-free.
Data set [6] is described as follows: Reversible inhibition of human rhinovirus serotype 14 3C protease by fluorescence resonance energy transfer assay. More on the design: species or system rhinovirus B14.
In data set [7] the test system is rhinovirus B14. In words: Antiviral activity against rhinovirus serotype 14 infected in human H1HeLa cells after 2 days by XTT/PMS dye based assay. The class given is functional, cell-based. The conditions noted are these: Rhinovirus B, H1-HeLa, 48 h. (In general: Tetrazolium assays rely on reduction of a dye to a coloured formazan, in cell work by metabolically active cells.)

Data set [8] can be described thus: Cytotoxicity against human H1HeLa cells after 2 days by XTT/PMS dye based assay. Format: cell-based, H1-HeLa.

As a reminder, the EC90 is the concentration needed for an effect of 90%. Higher therefore signals a need for much substance. A word on the CC50: it is the concentration that lowers cell viability or growth by half. Low readings indicate harm at low concentration, high ones better tolerance by the cells. What is called half-life is how long it takes for the measured level to halve. A low value points to fast loss. Regarding `CCOC(=O)/C=C/C(C[C@@H]1CCNC1=O)NC(=O)[C@@H](CC(=O)[C@@H](NC(=O)c1cc(C)on1)C(C)C)Cc1ccc(F)cc1` (some centres undefined), in the data set with rhinovirus B14 [1], the Ratio came to 1.47 ×10⁶ /M/s. For the same compound, the 90% effect concentration (EC90) with Enterovirus is 0.018 to 0.261 µM. This compound displayed a CC50 in data set [2] above 100 µM. In addition, the half-life was above 1 h in [3], above 1 h in [4] and below 2 min in [5].

The pKi is −log10 of the Ki, conventionally taken in molar units. A high value points to a low Ki. What is called pEC50 is the EC50 on a negative log10 scale, so that one unit is a factor of ten. A low value points to a high EC50. The compound `CC(C)C[C@H](NC(=O)OCc1ccccc1)C(=O)N[C@@H](Cc1ccccc1)C(=O)N[C@H](/C=C1\CCCOC1=O)CCC(N)=O` showed a pKi in data set [6] of 7.52. This compound had a negative logarithm of the EC50 (pEC50) with rhinovirus B14 [7] of 4.80. In data set [8], this compound gave a CC50 at 48 h above 100 µM.
